In paper PMC6792352, “Limited Chemical Structural Diversity Found to Modulate Thyroid Hormone Receptor in the Tox21 Chemical Library” (Environmental Health Perspectives, 2019):
Counter-ions that a name gives are not always drawn.

Assay: in vitro
Conditions: rat, gh3-tre-luc cells, AC50 (uM) modified / 1000

Compared with Nc1ccc(N=Nc2ccccc2)c(N)c1 [C.I. Basic Orange 2], COc1ccc(N)cc1N [2,4-Diaminoanisole sulfate] is 2.6-fold lower in CC50 at 24 h: 64.1 µM for the first, 24.6 µM for the second.

CC(O)(P(=O)(O)O)P(=O)(O)O [Etidronic acid] and NC(=O)CCCCC(N)=O [Adipamide] cannot be ordered by CC50 at 24 h: over 90 µM for the first, over 90 µM for the second.

First: CCOC(=O)O[C@H](C)OC(=O)c1ccc2c(c1)cc(C(=O)NC1CCN(C(C)C)CC1)n2Cc1cc(-c2ccc(Cl)s2)on1 [AVE6324]
Second: Cc1cc(C(=O)NCCc2ccc(S(=O)(=O)NC(=O)NN3CCCCCC3)cc2)no1 [Glisoxepide]
The CC50 at 24 h of the first is lower: 4.58 µM for the first, over 50 µM for the second.

CC(=O)OC1CN2CCC1CC2 (centres unmarked) [Aceclidine] and CC(=O)O[C@H]1C[C@@H]2CC[C@@H]3[C@H](CC[C@@]4(C)[C@H]3C[C@H]([N+]3(C)CCCCC3)[C@@H]4OC(C)=O)[C@@]2(C)C[C@@H]1N1CCCCC1 [Vecuronium bromide] cannot be ordered by CC50 at 24 h: over 50 µM for the first, over 50 µM for the second.

O=[N+]([O-])c1ccc2[nH]cnc2c1 [6-Nitrobenzimidazole] and O=C(O)Cc1c[nH]c2ccccc12 [Indole-3-acetic acid] cannot be ordered by CC50 at 24 h: over 90 µM for the first, over 90 µM for the second.

First: OCCN1CCN(CC/C=C2/c3ccccc3Sc3ccc(C(F)(F)F)cc32)CC1 [cis-Flupentixol]
Second: CC(=O)c1ccc2ccccc2c1 [2'-Acetonaphthone]
The CC50 at 24 h of the first is lower: 12.1 µM for the first, over 90 µM for the second.

CCCCCCCCCCCCCCCC(=O)OC[C@@H](NC(=O)C(Cl)Cl)[C@H](O)c1ccc([N+](=O)[O-])cc1 [Chloramphenicol palmitate] and CCCCCCCCCCCCOCCCN [Laurixamine] cannot be ordered by CC50 at 24 h: over 50 µM for the first, over 50 µM for the second.

CC1(O)CSC(C)(O)CS1 (centres unmarked) [2,5-Dimethyl-1,4-dithiane-2,5-diol] and C#C[C@]1(O)CC[C@H]2[C@@H]3CCC4=CC(=O)CC[C@]4(C)[C@H]3CC[C@@]21C [Ethisterone] cannot be ordered by CC50 at 24 h: over 90 µM for the first, over 90 µM for the second.

Cc1ccc2ccccc2n1 [Quinaldine] and N=C(Nc1ccccc1)Nc1ccccc1 [1,3-Diphenylguanidine] cannot be ordered by CC50 at 24 h: over 90 µM for the first, over 50 µM for the second.

Compared with CN(C)CCC[C@@]1(c2ccc(F)cc2)OCc2cc(C#N)ccc21 [Escitalopram oxalate], CC(CN(C)C)CN1c2ccccc2CCc2ccccc21 (centres unmarked) [Trimipramine maleate] is lower in CC50 at 24 h: over 50 µM for the first, 4.77 µM for the second.

CC/C=C\CC/C=C/CO [trans-2,cis-6-Nonadien-1-ol] and CCC/C=C/CO [(E)-2-Hexen-1-ol] cannot be ordered by CC50 at 24 h: over 90 µM for the first, over 90 µM for the second.

CCCCN=C=O [Butyl isocyanate] and CCCCCCCCO [1-Octanol] cannot be ordered by CC50 at 24 h: over 90 µM for the first, over 90 µM for the second.

CCNc1cccc(C)c1 [N-Ethyl-3-methylaniline] and CNC[C@H](O)c1cccc(O)c1 [Phenylephrine hydrochloride] cannot be ordered by CC50 at 24 h: over 90 µM for the first, over 90 µM for the second.

Nc1cc(Cl)c(N=C2NCCN2)c(Cl)c1 [Apraclonidine hydrochloride] and Oc1cc(Cl)cc(Cl)c1 [3,5-Dichlorophenol] cannot be ordered by CC50 at 24 h: over 50 µM for the first, over 90 µM for the second.

C=CCOCC(O)CCl (centres unmarked) [Allyl 3-chloro-2-hydroxypropyl ether] and CCCOCC(C)OCC(C)O (centres unmarked) [Butyl dipropasol solvent] cannot be ordered by CC50 at 24 h: over 90 µM for the first, over 90 µM for the second.

CC1(C)C(=O)NC(=O)N1CO [1-(Hydroxymethyl)-5,5-dimethylhydantoin] and CC1=CC(=O)NS(=O)(=O)O1 [Acesulfame potassium] cannot be ordered by CC50 at 24 h: over 90 µM for the first, over 90 µM for the second.

COC(=O)C1CC(=O)C(C(=O)OC)CC1=O (centres unmarked) [Dimethyl succinylsuccinate] and CCOC(=O)[C@H](CCc1ccccc1)N[C@@H](C)C(=O)N1CCC[C@H]1C(=O)O [Enalapril] cannot be ordered by CC50 at 24 h: over 5 µM for the first, over 50 µM for the second.

CCCCCCCCCI [1-Iodononane] and CCCCCCCCC1CCC(=O)O1 (centres unmarked) [gamma-Dodecalactone] cannot be ordered by CC50 at 24 h: over 90 µM for the first, over 90 µM for the second.

CCCCC(CC)COCCCN (centres unmarked) [3-((2-Ethylhexyl)oxy)propylamine] and CCCCCC/C=C/C(=O)OC [Methyl (2E)-2-nonenoate] cannot be ordered by CC50 at 24 h: over 90 µM for the first, over 90 µM for the second.

CC(C)=CCl [2,2-Dimethylvinyl chloride] and CC(O)CN (centres unmarked) [1-Amino-2-propanol] cannot be ordered by CC50 at 24 h: over 90 µM for the first, over 90 µM for the second.

CCC(C)(C)OC(=O)N[C@@H](Cc1c[nH]c2ccccc12)C(=O)N[C@@H](CCSC)C(=O)N[C@@H](CC(=O)O)C(=O)N[C@@H](Cc1ccccc1)C(N)=O [Amogastrin] and NCc1ccccc1CC(=O)N[C@@H]1C(=O)N2C(C(=O)O)=C(CSc3nnnn3CC(=O)O)CS[C@H]12 [Ceforanide] cannot be ordered by CC50 at 24 h: over 50 µM for the first, over 20 µM for the second.

BrCBr [Dibromomethane] and ClCOCCl [bis(Chloromethyl) ether] cannot be ordered by CC50 at 24 h: over 90 µM for the first, over 90 µM for the second.

First: CCCCCCCCCCCCCC[P+](CCCCCC)(CCCCCC)CCCCCC [Trihexyltetradecylphosphonium chloride]
Second: CCCCCCCN(CC)CCCC(O)c1ccc(NS(C)(=O)=O)cc1 (centres unmarked) [Ibutilide fumarate]
The CC50 at 24 h of the first is 4.2-fold lower: 5.15 µM for the first, 21.5 µM for the second.

O=S(=O)(O)c1cc(O)c2ccc(Nc3ccccc3)cc2c1 [4-Hydroxy-7-(phenylamino)naphthalene-2-sulfonic acid] and O=C(O)c1ccccc1C(=O)Nc1ccc(S(=O)(=O)Nc2nccs2)cc1 [Phthalylsulfathiazole] cannot be ordered by CC50 at 24 h: over 90 µM for the first, over 50 µM for the second.

O=C(O)c1cc(Cl)cc([N+](=O)[O-])c1Cl [2,5-Dichloro-3-nitrobenzoic acid] and NC(=O)Nc1ccccc1 [1-Phenylurea] cannot be ordered by CC50 at 24 h: over 90 µM for the first, over 90 µM for the second.

CCOCCOCCO [2-(2-Ethoxyethoxy)ethanol] and C=CC(OCC)OCC [Acrolein diethylacetal] cannot be ordered by CC50 at 24 h: over 90 µM for the first, over 90 µM for the second.

CCC(C)(C)OC [tert-Amyl methyl ether] and Cc1cc(C(C)(C)C)c(O)c(C)c1CC1=NCCN1 [Oxymetazoline] cannot be ordered by CC50 at 24 h: over 90 µM for the first, over 50 µM for the second.

CCOC(=O)OCC/C(SC(=O)OCC)=C(\C)N(C=O)Cc1cnc(C)nc1N [Dicethiamine hydrochloride] and CN(C)[C@@H]1C(=O)C(C(=O)NCNCCCC[C@H](N)C(=O)O)=C(O)[C@@]2(O)C(=O)C3=C(O)c4c(O)cccc4[C@@](C)(O)[C@H]3C[C@@H]12 [Lymecycline] cannot be ordered by CC50 at 24 h: over 50 µM for the first, over 20 µM for the second.

CCC1C(C)=NN=C(c2ccc(OC)c(OC)c2)c2cc(OC)c(OC)cc21 (centres unmarked) [Tofisopam] and Cc1ccc(OP(=O)(Oc2ccc(C)cc2C)Oc2ccc(C)cc2C)c(C)c1 [TXP] cannot be ordered by CC50 at 24 h: over 50 µM for the first, over 100 µM for the second.

FC(F)(F)C(F)(F)C(F)(F)C(F)(F)C(F)(F)C(F)(F)CCI [1H,1H,2H,2H-Perfluorooctyl iodide] and FC(F)(Cl)C(F)(Cl)Cl [1,1,2-Trichloro-1,2,2-trifluoroethane] cannot be ordered by CC50 at 24 h: over 50 µM for the first, over 90 µM for the second.

Nc1nnc(S)[nH]1 [5-Amino-1,2-dihydro-3H-1,2,4-triazole-3-thione] and Clc1cccc(SC2CCNCC2)n1 [Anpirtoline] cannot be ordered by CC50 at 24 h: over 90 µM for the first, over 50 µM for the second.

OC[C@H](Cc1cccc(O)c1)[C@H](CO)Cc1cccc(O)c1 [(-)-Enterodiol] and Cc1cccc(C(C)c2cnc[nH]2)c1C (centres unmarked) [Medetomidine hydrochloride] cannot be ordered by CC50 at 24 h: over 90 µM for the first, over 50 µM for the second.

NS(=O)(=O)c1cc2c(cc1Cl)NC(CC1CCCC1)NS2(=O)=O (centres unmarked) [Cyclopenthiazide] and O=C1C[C@@H]2OCC=C3CN4CC[C@]56c7ccccc7N1[C@H]5[C@H]2[C@H]3C[C@H]46 [Strychnine] cannot be ordered by CC50 at 24 h: over 20 µM for the first, over 50 µM for the second.

In the case of COc1cc(C)nc(-n2nc(C)cc2OC)n1 [Epirizole], the CC50 at 24 h is reported as over 20 µM.

Same assay, conditions: rat, gh3-tre-luc cells, AC50 (uM) modified / 1000, Tox21_110001=Tox21_110368; viability, 1 nM T3 present, 24 h

For CCC1(CC)C(=O)C=CNC1=O [Pyrithyldione], the CC50 at 24 h was over 50 µM.

Same assay, conditions: rat, gh3-tre-luc cells, AC50 (uM) modified / 1000, Tox21_110001=Tox21_111239; viability, 1 nM T3 present, 24 h

CC(C)NC(C)Cc1ccc(I)cc1 (centres unmarked) [Iofetamine hydrochloride] gave a CC50 at 24 h of over 50 µM.

Same assay, conditions: rat, gh3-tre-luc cells, AC50 (uM) modified / 1000, Tox21_110001=Tox21_111470; viability, 1 nM T3 present, 24 h

NC(=O)C[S+]([O-])C(c1ccccc1)c1ccccc1 (centres unmarked) [Modafinil] gave a CC50 at 24 h of over 50 µM.

Same assay, conditions: rat, gh3-tre-luc cells, AC50 (uM) modified / 1000, Tox21_110001=Tox21_200172; viability, 1 nM T3 present, 24 h

Work on C=CCc1cc(OC)c2c(c1)OCO2 [Myristicin] yielded a CC50 at 24 h of over 100 µM.

Same assay, conditions: rat, gh3-tre-luc cells, AC50 (uM) modified / 1000, Tox21_110001=Tox21_200284; viability, 1 nM T3 present, 24 h

Work on ClCCOCOCCCl [Bis(2-chloroethoxy)methane] yielded a CC50 at 24 h of over 100 µM.

Same assay, conditions: rat, gh3-tre-luc cells, AC50 (uM) modified / 1000, Tox21_110001=Tox21_200526; viability, 1 nM T3 present, 24 h

With CCCCCCC#N [Heptanenitrile] the CC50 at 24 h was over 90 µM.

Same assay, conditions: rat, gh3-tre-luc cells, AC50 (uM) modified / 1000, Tox21_110001=Tox21_201236; viability, 1 nM T3 present, 24 h

For CN1CSC(=S)N(C)C1 [Dazomet], the CC50 at 24 h was 5.54 µM.

Same assay, conditions: rat, gh3-tre-luc cells, AC50 (uM) modified / 1000, Tox21_110001=Tox21_201332; viability, 1 nM T3 present, 24 h

Cc1ccc([N+](=O)[O-])cc1C [1,2-Dimethyl-4-nitrobenzene] gave a CC50 at 24 h of over 90 µM.

Same assay, conditions: rat, gh3-tre-luc cells, AC50 (uM) modified / 1000, Tox21_110001=Tox21_201627; viability, 1 nM T3 present, 24 h

Work on Nc1ccc(Cl)cc1 [4-Chloroaniline hydrochloride] yielded a CC50 at 24 h of over 90 µM.

Same assay, conditions: rat, gh3-tre-luc cells, AC50 (uM) modified / 1000, Tox21_110001=Tox21_202204; viability, 1 nM T3 present, 24 h

In the case of COP(=O)(NC(C)=O)SC (centres unmarked) [Acephate], the CC50 at 24 h is reported as over 90 µM.

Same assay, conditions: rat, gh3-tre-luc cells, AC50 (uM) modified / 1000, Tox21_110001=Tox21_202795; viability, 1 nM T3 present, 24 h

In the case of O=C(CCl)C(Cl)Cl [1,1,3-Trichloropropanone], the CC50 at 24 h is reported as 13 µM.

Same assay, conditions: rat, gh3-tre-luc cells, AC50 (uM) modified / 1000, Tox21_110001=Tox21_300990; viability, 1 nM T3 present, 24 h

Compound CN1CSC(=S)N(C)C1 [Dazomet] has a CC50 at 24 h of 34.4 µM.

Same assay, conditions: rat, gh3-tre-luc cells, AC50 (uM) modified / 1000, Tox21_110001=Tox21_301886; viability, 1 nM T3 present, 24 h

For O=[N+]([O-])c1ccc(Nc2ccc(Nc3ccccc3)c(S(=O)(=O)O)c2)c([N+](=O)[O-])c1 [C.I. Acid Orange 3], the CC50 at 24 h was 76.1 µM.
